One compound from publication PMC6089211, “Expression and purification of human diacylglycerol kinase α from baculovirus-infected insect cells for structural studies” (PeerJ, 2018) can be followed below.

The target of the assay is T1, diacylglycerol kinase α (DGKα) (Homo sapiens, UniProt P23743).
T1 construct: gene DGKA; full-length DGKα (aa 1–735), N-terminal His×6 tag, Sf9-expressed
The assay can be described thus: Michaelis–Menten kinetics, mixed micelle ADP-Glo assay (Km). In kind it is biochemical.

T1 sequence (P23743 whole entry, the tested form may be a part): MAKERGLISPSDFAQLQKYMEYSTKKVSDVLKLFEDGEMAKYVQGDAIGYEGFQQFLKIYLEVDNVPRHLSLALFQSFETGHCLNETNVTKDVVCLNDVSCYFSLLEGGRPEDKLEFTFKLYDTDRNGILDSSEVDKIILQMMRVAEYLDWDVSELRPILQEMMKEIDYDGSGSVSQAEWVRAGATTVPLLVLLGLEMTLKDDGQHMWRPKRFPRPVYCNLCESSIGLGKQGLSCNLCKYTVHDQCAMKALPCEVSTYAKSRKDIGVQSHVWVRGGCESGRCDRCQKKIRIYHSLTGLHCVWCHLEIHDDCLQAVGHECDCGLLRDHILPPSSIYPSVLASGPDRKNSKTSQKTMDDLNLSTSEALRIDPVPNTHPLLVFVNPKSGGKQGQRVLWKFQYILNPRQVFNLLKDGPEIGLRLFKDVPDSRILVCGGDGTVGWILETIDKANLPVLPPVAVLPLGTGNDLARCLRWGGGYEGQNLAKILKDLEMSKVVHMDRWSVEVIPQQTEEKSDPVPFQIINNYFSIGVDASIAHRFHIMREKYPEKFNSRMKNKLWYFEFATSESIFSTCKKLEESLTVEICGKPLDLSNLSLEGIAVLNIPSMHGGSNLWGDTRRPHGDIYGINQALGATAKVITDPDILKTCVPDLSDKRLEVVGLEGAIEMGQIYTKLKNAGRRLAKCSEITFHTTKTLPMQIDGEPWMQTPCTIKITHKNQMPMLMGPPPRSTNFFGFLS

With `CCCCCCCC/C=C\CCCCCCCC(=O)OC[C@H](CO)OC(=O)CCCCCCC/C=C\CCCCCCCC` [1,2-dioleolyl-sn-glycerol], the Km stood at 1.06 ± 0.21 mol%.
